Assay type in all cases: cell-based, human
One test relates to XG12 myeloma cell line. The test can be described thus: Cell proliferation assay (tritiated thymidine incorporation), XG12. Conditions: for IC50: Homo sapiens; for IC10: XG12, concentration yielding 10% inhibition of proliferation. As for the experimental part:
(§1) Myeloma cells were harvested in the exponential growth phase (at day 3 after culture passage when the cell concentration is around 5×10^5 cells/ml). Cells were washed twice, cultured for 3 hours in RPMI1640 and 10% FCS, washed twice. This makes it possible to remove cell-bound growth factors (in particular recombinant IL-6). Then cells are plated in 96-well flat-bottomed microplates at various concentrations depending on their doubling time: • 5×10^3 cells/well in 100 μl for the cell lines: XG-1, XG-7 • 10^4 cells/well in […] for the cell lines: XG-2, XG-4, XG-6, XG-11, PRMI8226, L363 • 2×10^4 cells/well in 100 μl for the cell lines: XG-3, XG-12, XG-13, XG-14, XG-19, XG-20
(§2) The culture medium used were: • PRMI1640, 10% FCS and 0.5 ng/ml of IL-6 for XG-1, XG-2, XG-3, XG-4, XG-6, XG-7, XG-11, XG-12, XG-13, XG-19, XG-20 cells • X-VIVO20 and 0.5 ng/ml IL-6 for XG-14 cells • PRMI1640 and 10% FCS for RPMI8226 and L363 cells
(§3) The diluted compounds, DMSO or control culture medium were added in 100 μl at the start of the culture. Three culture wells were done for one compound dilution and the experiments were done twice (finally six culture wells for one compound dilution).
(§4) Cells were cultured for 4 days. Eight hours before the end of the culture, 0.5 μCi of tritiated thymidine were added in 50 μl of RPMI1640 and 10% FCS. Cells were then extracted with a cell collector and the thymidine incorporation was determined using a beta cell counter.
(§5) For each experiment, the mean tritiated thymidine incorporations (mean values determined on three culture wells) were plotted against the logarithmic concentrations of the compound. The curves were fitted with exponential regression, which was determined using the concentrations defining the inhibition response (usually 3-4 concentrations).
(§6) The concentrations yielding 50% and 90% inhibition of the proliferation of myeloma cells were determined with these regression curves.
(§7) The concentration yielding 10% (IC10) or 50% (IC50) inhibition of the myeloma cell lines were determined and the data are listed in Table 2.
(§8) Compound A was tested in combination with melphalan or Velcade. Increasing concentration of compound A (0, 0.01, 0.03, 0.12, 0.37, 1.1, 3.1, 10, 30 μM) were applied on 4 myeloma cell lines alone or in combination with Velcade or melphalan at concentration yielding around 10% or 50% inhibition.

A further test deals with XG3 myeloma cell line. The experiment in a line: Cell proliferation assay (tritiated thymidine incorporation), XG3. Particulars: for IC50: Homo sapiens; for IC10: XG3, concentration yielding 10% inhibition of proliferation. As for the experimental part: as §1, §2, §3, §4, §5, §6, §7, §8
A further test concerns XG7 myeloma cell line. The experiment in a line: Cell proliferation assay (tritiated thymidine incorporation), XG7. Particulars: for IC50: Homo sapiens; for IC10: XG7, concentration yielding 10% inhibition of proliferation. As for the experimental part:
as §1, §2, §3, §4, §5, §6, §7, §8

For the next test, the system named is L363 myeloma cell line. The experiment in a line: Cell proliferation assay (tritiated thymidine incorporation), L363. Particulars: for IC50: Homo sapiens; for IC10: L363, concentration yielding 10% inhibition of proliferation. How it is done:
as §1, §2, §3, §4, §5, §6, §7, §8

Read-outs that look alike come from different tables or passages of the source.

With `N[C@@H](Cc1ccc(N(CCCl)CCCl)cc1)C(=O)O` [Melphalan, melphalan], the IC50 turned out to be 1.23 µM with XG12 myeloma cell line, 1.68 µM in the test on XG3 myeloma cell line, 1.18 µM in the test on XG7 myeloma cell line and 0.457 µM in the test on L363 myeloma cell line (L-363). Further, the 10% effect concentration (IC10) in the test with XG12 myeloma cell line stood at 0.318 µM; with XG3 myeloma cell line it was 0.490 µM; with XG7 myeloma cell line it was 0.409 µM; in the test with L363 myeloma cell line, 0.110 µM.

In the case of `CC(C)C[C@H](NC(=O)[C@H](Cc1ccccc1)NC(=O)c1cnccn1)B(O)O` [Velcade, bortezomib], the half-maximal inhibitory concentration (IC50) in the test on XG12 myeloma cell line (XG12, proliferation, read-out: IC50) was found to be 0.0039 µM; in the test on XG3 myeloma cell line (XG3, proliferation, read-out: IC50), 0.0022 µM; with XG7 myeloma cell line (XG7, proliferation, read-out: IC50), 0.0035 µM; with L363 myeloma cell line (L-363, L363, proliferation, read-out: IC50) it was 0.0084 µM. Besides, the “IC10” value is 0.0016 µM in the test with XG12 myeloma cell line, 0.0016 µM in the test with XG3 myeloma cell line, 0.0014 µM with XG7 myeloma cell line and 0.0049 µM with L363 myeloma cell line.
